A value given as a limit tells only on which side of the number the result lay.

One data set addresses T1, human CRF receptor (Homo sapiens, UniProt P34998).
T1 construct: expressed in transfected cells; host or cells: CHO cells (membrane fraction)
T1 sequence (P34998 24-415): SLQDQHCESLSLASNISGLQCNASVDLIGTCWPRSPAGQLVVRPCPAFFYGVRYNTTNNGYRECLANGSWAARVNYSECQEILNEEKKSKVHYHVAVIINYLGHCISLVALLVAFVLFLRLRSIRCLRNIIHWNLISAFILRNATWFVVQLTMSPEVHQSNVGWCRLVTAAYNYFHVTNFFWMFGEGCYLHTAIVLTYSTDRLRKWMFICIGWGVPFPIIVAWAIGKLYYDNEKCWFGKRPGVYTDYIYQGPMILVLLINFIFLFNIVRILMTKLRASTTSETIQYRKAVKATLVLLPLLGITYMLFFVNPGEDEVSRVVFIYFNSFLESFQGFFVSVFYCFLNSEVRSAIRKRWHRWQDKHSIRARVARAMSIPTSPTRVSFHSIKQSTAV
Kind of data set: Measurement of CRF Binding Inhibitory Rate (receptor binding experiment with 125I-CRF). Particulars: human CRF receptor expressing CHO cellular membrane fraction; 50 pM ovine 125I-CRF; 0.05 nM to 10 μM of compound; room temperature 1.5 hr; read-out: IC50 values (CRF binding inhibition).

By melting point is commonly meant the temperature, or range, at which the solid turns liquid. Broadly, the IC50 is the concentration at which inhibition is half-maximal. Regarding `CCC(CC)c1ccc(Cl)c2nc(Oc3ccc(N(C)C)cc3Cl)n(C)c12` [Example 83, 3-Chloro-4-{[4-chloro-7-(1-ethylpropyl)-1-methyl-1H-benzimidazol-2-yl]oxy}-N,N-dimethylaniline], the melting point fell in the range of 148 to 149 °C. Besides, on human CRF receptor, the IC50 is under 1000 nM.

As for `CCC(CC)c1ccc(Cl)c2nc(Oc3c(Cl)cc(Cl)cc3CN(C)C)n(C)c12` [Example 86, 1-(3,5-Dichloro-2-{[4-chloro-7-(1-ethylpropyl)-1-methyl-1H-1-benzimidazol-2-yl]oxy}phenyl)-N,N-dimethylmethanamine], the melting point is 149 to 151 °C. Further, at human CRF receptor, the concentration for half-maximal inhibition (IC50) was under 1000 nM.

Regarding `CCC(CC)c1ccc(OC)c2nc(Nc3c(C)cc(Cl)cc3Cl)n(C)c12` [Example 88, N-(2,4-Dichloro-6-methylphenyl)-7-(1-ethylpropyl)-4-methoxy-1-methyl-1H-benzimidazol-2-amine], the melting point was 201 to 203 °C. Further, the IC50 at human CRF receptor was under 1000 nM.

In turn, `CCC(CC)c1cccc2nc(Oc3c(C)cc(Cl)cc3Cl)n(C)c12` [Example 91, 2-(2,4-Dichloro-6-methylphenoxy)-7-(1-ethylpropyl)-1-methyl-1H-benzimidazole] registered a melting point of 91 to 92 °C. In addition, the half-maximal inhibitory concentration (IC50) on human CRF receptor was under 1000 nM.

Compound `CCC(CO)c1ccc(Cl)c2nc(Oc3c(C)cc(Cl)cc3Cl)n(C)c12` (centres unmarked) [Example 94, 2-[4-Chloro-2-(2,4-dichloro-6-methylphenoxy)-1-methyl-1H-benzimidazol-7-yl]butan-1-ol] gave a melting point of 208 to 209 °C. Further, the IC50 at human CRF receptor is under 1000 nM.

The compound `CCC(CCO)c1ccc(Cl)c2nc(Oc3c(C)cc(Cl)cc3Cl)n(C)c12` (centres unmarked) [Example 97, 3-[4-Chloro-2-(2,4-dichloro-6-methylphenoxy)-1-methyl-1H-benzimidazol-7-yl]pentan-1-ol] had a melting point of 165 to 167 °C. The concentration for half-maximal inhibition (IC50) on human CRF receptor was under 1000 nM.

Consider `CCC(CC=O)c1ccc(Cl)c2nc(Oc3c(C)cc(Cl)cc3Cl)n(C)c12` (centres unmarked) [Example 98, 3-[4-Chloro-2-(2,4-dichloro-6-methylphenoxy)-1-methyl-1H-benzimidazol-7-yl]pentanal], for which the melting point lay within 157 to 158 °C. Also, the 50% inhibitory concentration (IC50) on human CRF receptor was under 1000 nM.

(Values after patent US20100056515A1, “BENZIMIDAZOLE COMPOUNDS” (priority 2006, published 2010).)
